Results taken from PubChem BioAssay AID252 (DTP/NCI, 2004).
Where “and” joins values, the source holds several entries; their conditions need not be identical. Equal values may be shown once. Toxic doses and inconclusive results are not listed. How the source made its calls: active means survival T/C of 150% or more; inactive means T/C below 125% in these data.

System: BDF1 mice, intracerebral L1210 leukemia, survival T/C
Assay: NCI In Vivo Anticancer Drug Screen. Data for tumor model L1210 Leukemia (intracerebral) in B6D2F1 (BDF1) mice
Settings: endpoint: mean survival time, higher = longer survival
How it was run: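 Survival measured in treated and vehicle-control tumour-bearing mice; value = T/C.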

[1] = dose: 5.0 mg/kg/injection, schedule: Q01DX001 (ip), vehicle: other
[2] = dose: 15.0 mg/kg/injection, schedule: Q01DX001 (ip), vehicle: other
[3] = dose: 20.0 mg/kg/injection, schedule: Q01DX001 (ip), vehicle: other
[4] = dose: 31.0 mg/kg/injection, schedule: Q01DX001 (ip), vehicle: other
[5] = dose: 4.0 mg/kg/injection, schedule: Q01DX001 (ip), vehicle: other
[6] = dose: 8.0 mg/kg/injection, schedule: Q01DX001 (ip), vehicle: other
[7] = dose: 33.0 mg/kg/injection, schedule: Q01DX001 (ip), vehicle: other
[8] = dose: 44.0 mg/kg/injection, schedule: Q01DX001 (ip), vehicle: other

Measured: T/C

O=NN(CCCl)C(=O)NCCCl
inactive: dose: 2.0 mg/kg/injection, schedule: Q01DX009 (ip), vehicle: saline 122 % of control | dose: 3.7 mg/kg/injection, schedule: Q01DX001 (ip), vehicle: other 114 % of control | [1] 117 % of control | dose: 5.0 mg/kg/injection, schedule: Q01DX001 (ip), vehicle: saline 121 % of control | dose: 7.0 mg/kg/injection, schedule: Q01DX001 (ip), vehicle: other 119 % of control | dose: 8.4 mg/kg/injection, schedule: Q01DX001 (ip), vehicle: saline 117 % of control and 122 % of control | dose: 10.0 mg/kg/injection, schedule: Q01DX001 (oral), vehicle: saline 120 % of control | dose: 16.0 mg/kg/injection, schedule: Q01DX009 (ip), vehicle: other 123 % of control | dose: 16.0 mg/kg/injection, schedule: Q01DX009 (ip), vehicle: saline 103 % of control | dose: 44.0 mg/kg/injection, schedule: Q04DX003 (ip), vehicle: saline + alcohol 87 % of control | dose: 60.0 mg/kg/injection, schedule: Q01DX001 (ip), vehicle: saline 112 % of control | dose: 62.0 mg/kg/injection, schedule: Q01DX001 (ip), vehicle: other 117 % of control
active: dose: 3.0 mg/kg/injection, schedule: Q04DX003 (ip), vehicle: saline 151 % of control | dose: 4.0 mg/kg/injection, schedule: Q01DX009 (ip), vehicle: other 174 % of control | dose: 4.0 mg/kg/injection, schedule: Q01DX009 (ip), vehicle: saline 154 % of control | dose: 6.0 mg/kg/injection, schedule: Q04DX003 (ip), vehicle: saline 173 % of control | dose: 8.0 mg/kg/injection, schedule: Q01DX005 (ip), vehicle: saline 175 % of control | dose: 8.0 mg/kg/injection, schedule: Q01DX009 (ip), vehicle: other 225 % of control | dose: 8.0 mg/kg/injection, schedule: Q01DX009 (ip), vehicle: saline 197 % of control | dose: 9.75 mg/kg/injection, schedule: Q01DX001 (ip), vehicle: saline 150 % of control and 153 % of control and 173 % of control | dose: 11.0 mg/kg/injection, schedule: Q04DX003 (ip), vehicle: saline + alcohol 203 % of control | dose: 12.0 mg/kg/injection, schedule: Q04DX003 (ip), vehicle: saline 250 % of control | dose: 13.0 mg/kg/injection, schedule: Q01DX001 (ip), vehicle: saline 219 % of control and 284 % of control | dose: 14.0 mg/kg/injection, schedule: Q01DX001 (sc), vehicle: saline 186 % of control | [2] 153 % of control and 155 % of control | dose: 15.0 mg/kg/injection, schedule: Q01DX001 (ip), vehicle: saline 175 % of control | dose: 19.5 mg/kg/injection, schedule: Q01DX001 (ip), vehicle: saline 197 % of control and 202 % of control and 226 % of control | dose: 19.7 mg/kg/injection, schedule: Q01DX001 (oral), vehicle: saline 217 % of control and 250 % of control (2×) | [3] 174 % of control | dose: 20.0 mg/kg/injection, schedule: Q01DX001 (oral), vehicle: saline 159 % of control and 172 % of control | dose: 22.0 mg/kg/injection, schedule: Q04DX003 (ip), vehicle: saline + alcohol 276 % of control | dose: 23.0 mg/kg/injection, schedule: Q01DX001 (sc), vehicle: saline 228 % of control | dose: 24.0 mg/kg/injection, schedule: Q01DX001 (ip), vehicle: saline 236 % of control | dose: 25.0 mg/kg/injection, schedule: Q01DX001 (ip), vehicle: saline 263 % of control and 357 % of control | dose: 25.0 mg/kg/injection, schedule: Q01DX001 (oral), vehicle: saline 261 % of control | dose: 29.0 mg/kg/injection, schedule: Q01DX001 (ip), vehicle: saline 266 % of control and 297 % of control | dose: 30.0 mg/kg/injection, schedule: Q01DX001 (ip), vehicle: saline 225 % of control and 440 % of control | [4] 246 % of control and 269 % of control | dose: 39.0 mg/kg/injection, schedule: Q01DX001 (sc), vehicle: saline 241 % of control | dose: 39.5 mg/kg/injection, schedule: Q01DX001 (oral), vehicle: saline 269 % of control and 387 % of control and 405 % of control | dose: 40.0 mg/kg/injection, schedule: Q01DX001 (ip), vehicle: other 333 % of control | dose: 48.0 mg/kg/injection, schedule: Q01DX001 (ip), vehicle: saline 296 % of control | dose: 50.0 mg/kg/injection, schedule: Q01DX001 (ip), vehicle: saline 150 % of control | dose: 50.0 mg/kg/injection, schedule: Q01DX001 (oral), vehicle: saline 238 % of control | dose: 65.0 mg/kg/injection, schedule: Q01DX001 (sc), vehicle: saline 162 % of control | dose: 79.0 mg/kg/injection, schedule: Q01DX001 (oral), vehicle: saline 172 % of control and 175 % of control

N#[N+]c1cnc([O-])[nH]c1=O
inactive: dose: 5.0 mg/kg/injection, schedule: Q01DX015 (ip), vehicle: alkali diluted with saline 102 % of control | dose: 7.7 mg/kg/injection, schedule: Q01DX015 (ip), vehicle: alkali diluted with saline 101 % of control | dose: 11.5 mg/kg/injection, schedule: Q01DX015 (ip), vehicle: alkali diluted with saline 106 % of control | dose: 12.0 mg/kg/injection, schedule: Q01DX001 (ip), vehicle: alkali diluted with saline 97 % of control | dose: 15.0 mg/kg/injection, schedule: Q01DX Z (ip), vehicle: alkali diluted with saline 101 % of control | dose: 19.0 mg/kg/injection, schedule: Q01DX001 (ip), vehicle: alkali diluted with saline 102 % of control | dose: 20.0 mg/kg/injection, schedule: Q01DX Z (ip), vehicle: alkali diluted with saline 97 % of control | dose: 25.0 mg/kg/injection, schedule: Q01DX Z (ip), vehicle: alkali diluted with saline 92 % of control | dose: 29.0 mg/kg/injection, schedule: Q01DX001 (ip), vehicle: alkali diluted with saline 106 % of control | dose: 40.0 mg/kg/injection, schedule: Q01DX Z (ip), vehicle: alkali diluted with saline 91 % of control

O=NN(CCCl)C(=O)NC1CCC(=O)NC1=O (centres undefined)
inactive: dose: 2.1 mg/kg/injection, schedule: Q01DX001 (ip), vehicle: other 106 % of control and 116 % of control | dose: 30.0 mg/kg/injection, schedule: Q01DX001 (ip), vehicle: saline with Tween-80 107 % of control
active: [5] 156 % of control and 226 % of control | [6] 159 % of control and 161 % of control and 183 % of control | dose: 8.0 mg/kg/injection, schedule: Q01DX001 (ip), vehicle: saline with Tween-80 352 % of control | dose: 11.0 mg/kg/injection, schedule: Q01DX001 (ip), vehicle: other 251 % of control | dose: 12.0 mg/kg/injection, schedule: Q01DX001 (ip), vehicle: other 298 % of control and 327 % of control | dose: 13.0 mg/kg/injection, schedule: Q01DX001 (ip), vehicle: saline with Tween-80 542 % of control | dose: 16.0 mg/kg/injection, schedule: Q01DX001 (ip), vehicle: other 274 % of control and 328 % of control | dose: 17.0 mg/kg/injection, schedule: Q01DX001 (ip), vehicle: other 389 % of control and 498 % of control | dose: 20.0 mg/kg/injection, schedule: Q01DX001 (ip), vehicle: saline with Tween-80 625 % of control | dose: 22.0 mg/kg/injection, schedule: Q01DX001 (ip), vehicle: other 251 % of control | dose: 24.0 mg/kg/injection, schedule: Q01DX001 (ip), vehicle: other 238 % of control and 335 % of control | [7] 297 % of control | dose: 35.0 mg/kg/injection, schedule: Q01DX001 (ip), vehicle: other 287 % of control and 353 % of control | dose: 36.0 mg/kg/injection, schedule: Q01DX001 (ip), vehicle: other 205 % of control | [8] 275 % of control

Cc1cc(C)c(NC(=O)N(CCCl)N=O)c(C)c1
inactive: [1] 97 % of control | dose: 7.5 mg/kg/injection, schedule: Q01DX001 (ip), vehicle: other 98 % of control | dose: 10.0 mg/kg/injection, schedule: Q01DX001 (ip), vehicle: other 103 % of control | [2] 107 % of control and 117 % of control | [3] 115 % of control | dose: 128.0 mg/kg/injection, schedule: Q01DX001 (ip), vehicle: other 101 % of control

CCOC(=O)C1CCC(NC(=O)N(CCCl)N=O)CC1 (centres undefined)
inactive: [5] 103 % of control and 113 % of control | [6] 110 % of control | dose: 14.0 mg/kg/injection, schedule: Q01DX001 (ip), vehicle: other 118 % of control
active: [4] 179 % of control and 203 % of control | [7] 169 % of control and 203 % of control | [8] 225 % of control | dose: 47.0 mg/kg/injection, schedule: Q01DX001 (ip), vehicle: other 203 % of control and 239 % of control | dose: 66.0 mg/kg/injection, schedule: Q01DX001 (ip), vehicle: other 175 % of control and 303 % of control | dose: 67.0 mg/kg/injection, schedule: Q01DX001 (ip), vehicle: other 155 % of control | dose: 70.0 mg/kg/injection, schedule: Q01DX001 (ip), vehicle: other 151 % of control
